Key:
orexin-1 receptor (OX1R) = biological target: T1, orexin-1 receptor (OX1R) (UniProt O43613); test: radioligand binding assay, membranes from CHO cells expressing OX1 receptor; details: CHO cell membranes
T1 sequence (O43613 1-425): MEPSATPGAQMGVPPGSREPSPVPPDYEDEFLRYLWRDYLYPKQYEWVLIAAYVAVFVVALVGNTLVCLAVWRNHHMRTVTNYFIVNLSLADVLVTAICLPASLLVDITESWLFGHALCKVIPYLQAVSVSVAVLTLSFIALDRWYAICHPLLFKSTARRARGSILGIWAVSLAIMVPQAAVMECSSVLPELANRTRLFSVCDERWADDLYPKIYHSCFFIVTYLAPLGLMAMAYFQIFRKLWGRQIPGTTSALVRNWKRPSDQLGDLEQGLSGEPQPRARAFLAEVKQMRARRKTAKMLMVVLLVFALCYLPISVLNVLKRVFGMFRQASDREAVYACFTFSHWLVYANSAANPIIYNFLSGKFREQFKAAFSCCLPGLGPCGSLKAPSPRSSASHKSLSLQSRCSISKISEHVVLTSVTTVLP
Protocol: (§1) The utility of the compounds in accordance with the present invention as orexin receptor OX1R and/or OX2R antagonists may be readily determined without undue experimentation by methodology well known in the art, including the “FLIPR Ca^2+ Flux Assay” (Okumura et al., Biochem. Biophys. Res. Comm. 280:976-981, 2001). In a typical experiment the OX1 and OX2 receptor antagonistic activity of the compounds of the present invention was determined in accordance with the following experimental method. […] Within the Fluorescent Imaging Plate Reader (FLIPR, Molecular Devices), test compounds are added to the plate in a volume of 25 ul, incubated for 5 min and finally 25 ul of agonist is added. Fluorescence is measured for each well at 1 second intervals for 5 minutes and the height of each fluorescence peak is compared to the height of the fluorescence peak induced by 70 pM Ala-6,12 orexin-A with buffer in place of antagonist. […] Alternatively, compound potency can be assessed by a radioligand binding assay (described in Bergman et. al. Bioorg. Med. Chem. Lett. 2008, 18, 1425-1430) in which the inhibition constant (Ki) is determined in membranes prepared from CHO cells expressing either the orexin-1 (OX1) or orexin-2 (OX2) receptor. The intrinsic orexin receptor antagonist activity of a compound which may be used in the present invention may be determined by these assays.

orexin-2 receptor (OX2R) = biological target: T2, orexin-2 receptor (OX2R) (Homo sapiens, UniProt O43614); test: radioligand binding assay, membranes from CHO cells expressing OX2 receptor; details: CHO cell membranes
T2 construct: expressed in transfected cells; host or cells: CHO cells (membrane preparation)
T2 sequence (O43614 1-444): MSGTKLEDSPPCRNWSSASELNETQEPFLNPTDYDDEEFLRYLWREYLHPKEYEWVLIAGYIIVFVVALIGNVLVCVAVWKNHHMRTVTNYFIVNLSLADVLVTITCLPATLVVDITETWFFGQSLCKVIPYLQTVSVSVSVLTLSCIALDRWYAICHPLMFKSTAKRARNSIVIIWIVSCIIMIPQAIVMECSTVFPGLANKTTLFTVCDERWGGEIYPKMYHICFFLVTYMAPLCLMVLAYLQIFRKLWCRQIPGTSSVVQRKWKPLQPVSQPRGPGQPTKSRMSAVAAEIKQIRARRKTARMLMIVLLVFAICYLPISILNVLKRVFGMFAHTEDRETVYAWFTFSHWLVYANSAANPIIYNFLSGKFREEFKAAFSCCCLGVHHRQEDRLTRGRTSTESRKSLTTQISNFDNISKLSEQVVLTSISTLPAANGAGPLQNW
Protocol: as §1

Structure (SMILES)	Ki (orexin-1 receptor (OX1R)) [µM]	Ki (orexin-2 receptor (OX2R)) [µM]
Cc1ccc(-n2nccn2)c(C(=O)N2CC(COc3ccc(F)cn3)CC2C)c1 (racemic) [A-7, 5-fluoro-2-({5-methyl-1-[5-methyl-2-(2H-1,2,3-triazol-2-yl)benzoyl]pyrrolidin-3-yl}methoxy)pyridine]	0.23	0.01
Cc1ccc(-n2nccn2)c(C(=O)N2CC(COc3ccc(F)cn3)CC2C)c1 (single isomer, unassigned) [A-8]	0.037	0.0051

Reference: patent publication US8357709B2, “2,4-disubstituted pyrrolidine orexin receptor antagonists” (Merck Sharp & Dohme Corp., priority 2008, dated 2013)
